Assay results: ChEMBL document CHEMBL1154012, “Synthesis and SAR of novel tricyclic quinoxalinone inhibitors of poly(ADP-ribose)polymerase-1 (PARP-1)” (Bioorg Med Chem Lett, 2009)

What was measured:
[1] = molecular target: T1, Poly [ADP-ribose] polymerase 1 (Homo sapiens, UniProt P09874)
Description: Inhibition of PARP1 by microplate scintillation counting

[2] = molecular target: T1, Poly [ADP-ribose] polymerase 1; remark: listed apart in the source
Description: Inhibition of PARP1 in human C41 cells by DAPI staining-based FITC analysis

T1 sequence (P09874 whole entry): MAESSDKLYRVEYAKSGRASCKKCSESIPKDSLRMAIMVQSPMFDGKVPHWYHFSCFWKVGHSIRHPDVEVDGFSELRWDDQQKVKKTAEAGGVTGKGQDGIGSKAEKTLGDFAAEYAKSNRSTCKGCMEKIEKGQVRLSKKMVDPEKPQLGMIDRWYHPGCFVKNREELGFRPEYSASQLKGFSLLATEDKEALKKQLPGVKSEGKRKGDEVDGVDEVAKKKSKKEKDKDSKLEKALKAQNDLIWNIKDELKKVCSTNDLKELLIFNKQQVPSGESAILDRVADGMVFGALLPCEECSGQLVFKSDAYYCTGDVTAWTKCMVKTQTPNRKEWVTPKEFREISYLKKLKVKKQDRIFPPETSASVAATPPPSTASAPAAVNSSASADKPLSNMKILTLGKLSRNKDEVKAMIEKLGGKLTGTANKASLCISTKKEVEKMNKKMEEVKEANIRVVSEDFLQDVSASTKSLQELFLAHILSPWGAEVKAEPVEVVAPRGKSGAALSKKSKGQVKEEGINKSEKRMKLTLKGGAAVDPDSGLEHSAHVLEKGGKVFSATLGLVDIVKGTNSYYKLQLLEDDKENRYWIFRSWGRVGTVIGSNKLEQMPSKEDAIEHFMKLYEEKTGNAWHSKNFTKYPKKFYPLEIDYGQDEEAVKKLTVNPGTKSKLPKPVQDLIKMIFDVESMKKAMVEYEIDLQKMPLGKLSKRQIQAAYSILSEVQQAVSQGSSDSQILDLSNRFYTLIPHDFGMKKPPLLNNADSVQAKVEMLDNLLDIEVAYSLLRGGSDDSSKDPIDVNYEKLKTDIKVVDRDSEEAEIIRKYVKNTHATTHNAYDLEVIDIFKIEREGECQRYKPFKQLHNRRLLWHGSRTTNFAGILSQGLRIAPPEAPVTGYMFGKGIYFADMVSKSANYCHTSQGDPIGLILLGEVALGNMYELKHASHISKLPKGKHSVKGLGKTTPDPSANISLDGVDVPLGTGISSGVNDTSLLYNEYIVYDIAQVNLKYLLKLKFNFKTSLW

| Compound | Ki [1] | EC50 [2] |
| --- | --- | --- |
| O=c1[nH]c2cc(CNCc3ccccc3)ccc2n2cccc12 | 161 nM | 164 nM |
| O=c1[nH]c2ccc(CN3CCCCC3)cc2n2cccc12 |  | 31 nM |
| O=c1[nH]c2ccc(CNC3CC3)cc2n2cccc12 | 31 nM | 25 nM |
| O=c1[nH]c2cc(CN3CCCC3)ccc2n2cccc12 |  | 6 nM |
| CN(C)Cc1ccc2c(c1)NC(=O)C1CCCN21 (stereo not drawn) | 190 nM | 646 nM |
